# Measurements from patent US20110071142A1, “IDENTIFICATION AND USE OF SMALL MOLECULES TO MODULATE TRANSCRIPTION FACTOR FUNCTION AND TO TREAT TRANSCRIPTION FACTOR ASSOCIATED DISEASES” (BETH ISRAEL DEACONESS MEDICAL CENTER, priority 2007, published 2011).
# Read-outs that look alike come from different tables or passages of the source.
# Assays:
# [1] = tested on: Ets-1 mediated gene expression; test: Ets-1 mediated gene expression in HEK293 cells; type: cell-based, Human
# Ets-1 expression = test: Real time PCR of IL-1 induced Ets-1 expression in HUVECs; type: cell-based, Human; details: 10 μM, preincubated 1 h, IL-1 10 ng/ml, 2 hr
# Protocol: (§1) SYBR Green I-based real-time PCR is carried out on an Opticon Monitor (MJ Research, Inc, Waltham, Mass.). All PCR mixtures contain PCR buffer [final concentration: 10 mM Tris-HCl (pH9.0), 50 mM KCl, 2 mM MgCl2 and 0.1% TritonX-100], 250 μM deoxy-NTP (Roche), 0.5 μM of each PCR primer, 0.5×SYBR Green I,
# (§2) 5% DMSO, and 1U Taq DNA polymerase (Promega, Madison, Wis.) with 2 μl cDNA in a 25 μl final volume of reaction mix. Then, the fluorescence signal is measured immediately following incubation at 78° C. for 5 s that follows each extension step, which eliminates possible primer dimer detection. At the end of PCR cycles, a melting curve will be generated to identify specificity of the PCR product. For each run, serial dilutions of human GAPDH plasmids are used as standards for quantitative measurement of the amount of amplified cDNA. For normalization of each sample, GAPDH primers are used to measure the GAPDH cDNA levels. Cytotoxicity Evaluation of “hit” Compounds Using MTS Assay
# (§3) Total RNA was isolated for real time PCR to measure Ets-1 expression levels as well as the IL-1 inducible, Ets-1
# (§4) dependent MCP-1 expression levels, following stimulation for 1, 2, 4, 6 and 12 hours. IL-1 induced Ets-1 expression ˜4 fold at 2 hr, however compound #28 reduced Ets-1 induction by greater than 50% during this time frame. […]
# MCP-1 expression = test: Real time PCR of IL-1 inducible, Ets-1 dependent MCP-1 expression in HUVECs; type: cell-based, Human; details: 10 μM, preincubated 1 h, IL-1 10 ng/ml
# Protocol: as §1, §2, §3, §4
# Ets-1 transactivation = test: Reporter gene transactivation assays (transient transfection); type: cell-based, Human
# Protocol: Several downstream targets of Ets-1 including the MCP-1 gene, PAI1, and Flt-1 (49, 142) have been identified. To further define the specificity of small molecules that inhibit DNA binding of Ets-1 in EMSAs, their ability is evaluated with regard to inhibiting transactivation of the MCP-1, PAI-1, and Flt-1 promoters by Ets-1, without affecting the basal activity of the promoter. As controls, the endothelial-specific promoters Tie1 and Tie2 are used, that have been previously shown as targets of the Ets factors NERF2 and Elf-1, but not Ets-1 or Ets-2 (142, 146). The promoters of these genes have previously been subcloned into the PGL2 luciferase reporter (Promega). Similarly, we have previously subcloned the
# cDNAs encoding the ETS factors Ets-1, Ets-2, NERF2, and Elf-1 into the PCI mammalian expression plasmid.
# Human embryonic kidney cells (HEK 293) are cultured as previously described (147). HEK 293 cells are kidney epithelial cells that express low basal levels of Ets-1, and are easily transfected. Cotransfections of 2×10^5 HEK 293 cells are carried out with 0.3 μg of the reporter gene construct DNA and 0.15 μg of the mammalian expression vector encoding the selected Ets factors using 4 μl LipofectAMINE (Invitrogen, San Diego, Calif.) as described (148). […]
# Ets-1-DNA interaction = biological target: T1, Ets-1-DNA interaction (Homo sapiens, UniProt P14921); test: Electrophoretic mobility shift assay (EMSA) of Ets-1 DNA binding
# T1 construct: host or cells: cell-free in vitro translation, rabbit reticulocyte lysate
# T1 sequence (P14921 1-441): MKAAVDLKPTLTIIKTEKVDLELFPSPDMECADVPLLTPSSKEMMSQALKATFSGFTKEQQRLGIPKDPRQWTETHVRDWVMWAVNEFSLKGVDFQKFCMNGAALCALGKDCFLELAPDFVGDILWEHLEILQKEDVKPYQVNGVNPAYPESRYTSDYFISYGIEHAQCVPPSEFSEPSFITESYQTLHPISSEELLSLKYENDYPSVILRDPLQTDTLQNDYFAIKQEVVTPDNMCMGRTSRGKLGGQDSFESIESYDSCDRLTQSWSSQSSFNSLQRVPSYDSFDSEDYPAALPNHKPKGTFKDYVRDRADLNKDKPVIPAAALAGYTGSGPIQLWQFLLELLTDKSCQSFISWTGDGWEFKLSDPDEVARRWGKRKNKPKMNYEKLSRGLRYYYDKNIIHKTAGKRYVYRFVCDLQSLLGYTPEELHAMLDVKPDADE
# Protocol: Initially it is determined whether the identified small molecule “hits” interfere with Ets-1-DNA binding using electrophoretic mobility shift assays (EMSAs). These are performed as described previously (142). In brief, in vitro translated Ets-1 protein is generated using a rabbit reticulolysate system (Promega) and a mammalian expression plasmid encoding the Ets-1 protein. 1 μl of the in vitro translation reaction and 0.1-0.2
# ng [32P]dATP-labeled double-stranded oligonucleotide probe (5,000-10,000 cpm) will be run on 4% polyacrylamide gels containing 0.5×TBE buffer. […] The small molecules identified are initially evaluated at a concentration of 1 mM, which is the concentration used in high throughput fraganomic approaches for evaluating the interaction of weak-binding small molecules (143, 144). Those small molecules that inhibit the Ets-1-DNA interaction will be re-evaluated over a concentration range of 10 μM-1 mM. Solutions containing DMSO alone will be used as a vehicle control. To ensure the small molecule is specifically targeting the Ets-1-DNA interface and not interacting non-specifically with the DNA, a non-specific promoter is included as well as a control small molecule that is not selected as a “hit” by our HTD screen. To further confirm the molecular specificity of these small molecules for targeting Ets-1, EMSAs will be performed with other members of the ETS family. Ethidium bromide displacement assays could also be used to confirm that the small molecules are not nonspecifically targeting the DNA sequence (145).
structure (smiles),measurement,setting,value
"Nc1ccccc1SC(C[N+](=O)[O-])c1ccc2c(c1)OCO2 (stereo not shown) [Compound 28, 2-{[1-(1,3-benzodioxol-5-yl)-2-nitroethyl]thio}aniline]",decrease of Ets-1 mediated gene expression,[1],50-60%
same,reduction of IL-1 induced Ets-1 induction,Ets-1 expression,greater than 50%
same,reduction of IL-1 induced MCP-1 expression,MCP-1 expression,greater than 40%
same,inhibition of transactivation assays,Ets-1 transactivation,8 fold
same,inhibition of Ets-1 DNA binding,Ets-1-DNA interaction,inhibits Ets-1 DNA binding
same,"inhibits the Ets-1-DNA interaction, concentration range as estimated using EMSAs",Ets-1-DNA interaction,low uM range
same,inhibition of Ets-1 DNA binding,Ets-1-DNA interaction; FIG. 8 legend: HUVECs preincubated with 10 μM,inhibits Ets-1 DNA binding
